The record followed here is patent US10934294B2, “Substituted pyrazolo[3,4-d]pyrimidines as PDE9 inhibitors” (Merck Sharp & Dohme Corp., priority 2017, dated 2021).

Read-outs that look alike come from different tables or passages of the source.

This assay deals with Human PDE9 (PDE9A2) (Homo sapiens (Human), UniProt O76083). Kind of assay: PDE9 IMAP fluorescence polarization (FP) inhibition assay. The assay is classed as biochemical.
[1] abbreviates: read-out: PDE9 IMAP Ki, apparent inhibition constant, FAM-cGMP substrate 50 nM, room temperature.
Where [2] appears, read: apparent inhibition constant, FAM-cGMP substrate 50 nM, room temperature, read-out: PDE9 IMAP Ki.

Human PDE9 (PDE9A2), sequence (O76083 other isoform, or with tags, fused parts or gaps): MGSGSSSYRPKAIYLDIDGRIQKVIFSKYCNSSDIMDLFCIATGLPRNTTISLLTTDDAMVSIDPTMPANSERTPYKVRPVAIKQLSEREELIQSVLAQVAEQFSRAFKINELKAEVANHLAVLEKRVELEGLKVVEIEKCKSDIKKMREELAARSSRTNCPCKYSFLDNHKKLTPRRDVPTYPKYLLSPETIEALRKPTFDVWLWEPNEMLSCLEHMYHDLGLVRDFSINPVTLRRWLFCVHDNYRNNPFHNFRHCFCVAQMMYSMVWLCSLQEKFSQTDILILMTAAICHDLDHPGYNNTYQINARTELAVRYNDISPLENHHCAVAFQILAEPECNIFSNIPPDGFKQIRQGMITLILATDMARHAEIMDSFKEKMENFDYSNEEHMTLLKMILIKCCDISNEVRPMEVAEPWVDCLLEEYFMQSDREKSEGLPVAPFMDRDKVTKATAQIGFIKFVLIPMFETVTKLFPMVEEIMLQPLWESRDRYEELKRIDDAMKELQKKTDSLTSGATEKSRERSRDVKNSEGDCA

With `CC(c1cncc(F)c1)n1nc(C#N)c2c(=O)[nH]c(C3CCC3c3ncccn3)nc21` (single isomer, unassigned) [Example 64, 1-(1-(5-fluoropyridin-3-yl)ethyl)-4-oxo-6-(2-(pyrimidin-2-yl)cyclobutyl)-4,5-dihydro-1H-pyrazolo[3,4-d]pyrimidine-3-carbonitrile], the Ki is > 67.5 nM.
As to `CC(c1cncc(F)c1)n1nc(C#N)c2c(=O)[nH]c(C3CCC3c3ncccn3)nc21` (single isomer, unassigned) [Example 65, 1-(1-(5-fluoropyridin-3-yl)ethyl)-4-oxo-6-(2-(pyrimidin-2-yl)cyclobutyl)-4,5-dihydro-1H-pyrazolo[3,4-d]pyrimidine-3-carbonitrile], the Ki under setting [1] is > 67.5 nM.
Take `CC(c1cnn(C)c1)n1nc(C#N)c2c(=O)[nH]c(C3CCC3c3ncccn3)nc21` (single isomer, unassigned) [Example 68, 1-(1-(1-methyl-1H-pyrazol-4-yl)ethyl)-4-oxo-6-(2-(pyrimidin-2-yl)cyclobutyl)-4,5-dihydro-1H-pyrazolo[3,4-d]pyrimidine-3-carbonitrile]: the Ki is > 67.5 nM.
On to `CC(c1cnn(C)c1)n1nc(C#N)c2c(=O)[nH]c(C3CCC3c3ncccn3)nc21` (single isomer, unassigned) [Example 69, 1-(1-(1-methyl-1H-pyrazol-4-yl)ethyl)-4-oxo-6-(2-(pyrimidin-2-yl)cyclobutyl)-4,5-dihydro-1H-pyrazolo[3,4-d]pyrimidine-3-carbonitrile], for which the Ki under setting [1] is > 67.5 nM.
In the case of `CC(c1cncc(F)c1)n1nc(C#N)c2c(=O)[nH]c(C3CCC3c3ncccn3)nc21` (centres unmarked) [Example 66, 1-(1-(5-fluoropyridin-3-yl)ethyl)-4-oxo-6-(2-(pyrimidin-2-yl)cyclobutyl)-4,5-dihydro-1H-pyrazolo[3,4-d]pyrimidine-3-carbonitrile], the Ki under setting [2] is > 67.5 nM.
`CC(c1cnn(C)c1)n1nc(C#N)c2c(=O)[nH]c(C3CCC3c3ncccn3)nc21` (centres unmarked) [Example 71, 1-(1-(1-methyl-1H-pyrazol-4-yl)ethyl)-4-oxo-6-(2-(pyrimidin-2-yl)cyclobutyl)-4,5-dihydro-1H-pyrazolo[3,4-d]pyrimidine-3-carbonitrile]: the Ki is > 67.5 nM.
For the molecule `CC(C1CCOCC1)n1nc(C#N)c2c(=O)[nH]c(C3CCC3c3ncc(F)cn3)nc21` (centres unmarked) [Example 85, 6-(2-(5-fluoropyrimidin-2-yl)cyclobutyl)-4-oxo-1-(1-(tetrahydro-2H-pyran-4-yl)ethyl)-4,5-dihydro-1H-pyrazolo[3,4-d]pyrimidine-3-carbonitrile], the Ki under setting [2] is > 607 nM.
With `C[C@H](c1ccc(C(F)(F)F)nc1)n1nc(C#N)c2c(=O)[nH]c([C@@H]3CC[C@H]3c3nc(C(F)F)cc(C(F)F)n3)nc21` [Example 116, 6-((1R,2R)-2-(4,6-bis(difluoromethyl)pyrimidin-2-yl)cyclobutyl)-4-oxo-1-((R)-1-(6-(trifluoromethyl)-pyridin-3-yl)ethyl)-4,5-dihydro-1H-pyrazolo[3,4-d]pyrimidine-3-carbonitrile], the Ki under setting [2] came to 8.3 nM.
